Consider twelve compounds from patent publication US6911542B2, “Pyrazino[1′,2′:1,6]pyrido[3,4b]indole derivatives” (Lilly Icos LLC., priority 2000, dated 2005).

pIC50: −log10 of the molar value.

For the first data set, the target named is T1, human recombinant PDE5 (Homo sapiens, UniProt O76074).
T1 construct: host or cells: Saccharomyces cerevisiae, protease-deficient strain BJ2-54 (ATCC 74465)
In words: cGMP-PDE one-step inhibition assay, human recombinant PDE5. The class given is biochemical. The settings on record: 0.15 μM 8-[H3]-cGMP, 30 min incubation. As to the method: The compounds of structural formula (I) were tested for an ability to inhibit PDE5. The ability of a compound to inhibit PDE5 activity is related to the IC50 value for the compound, i.e., the concentration of inhibitor required for 50% inhibition of enzyme activity. The IC50 value for compounds of structural formula (I) were determined using recombinant human PDE5.
The production of recombinant human PDEs and the IC50 determinations can be accomplished by well-known methods in the art. Exemplary methods are described as follows:
Recombinant production of human PDE1B, PDE2, PDE4A, PDE4B, PDE4C, PDE4D, PDE5, and PDE7 was carried out similarly to that described in Example 7 of U.S. Pat. No. 5,702,936, incorporated herein by reference, except that the yeast transformation vector employed, which is derived from the basic ADH2 plasmid described in Price et al., Methods in Enzymology, 185, pp. 308-318 (1990), incorporated yeast ADH2 promoter and terminator sequences and the Saccharomyces cerevisiae host was the protease-deficient strain BJ2-54 deposited on Aug. 31, 1998 with the American Type Culture Collection, Manassas, Va., under accession number ATCC 74465. Transformed host cells were grown in 2×SC-leu medium, pH 6.2, with trace metals, and vitamins. After 24 hours, YEP medium-containing glycerol was added to a final concentration of 2×YET/3% glycerol. Approximately 24 hr later, cells were harvested, washed, and stored at −70° C. […]
Cell pellets (29 g) were thawed on ice with an equal volume of Lysis Buffer (25 mM Tris HCl, pH 8, 5 mM MgCl2, 0.25 mM DTT, 1 mM benzamidine, and 10 μM ZnSO4). Cells were lysed in a Microfluidizer® (Microfluidics Corp.) using nitrogen at 20,000 psi. The lysate was centrifuged and filtered through 0.45 μm disposable filters. The filtrate was applied to a 150 mL column of Q SEPHAROSE® Fast-Flow (Pharmacia). The column was washed with 1.5 volumes of Buffer A (20 mM Bis-Tris Propane, pH 6.8, 1 mM MgCl2, 0.25 mM DTT, 10 μM ZnSO4) and eluted with a step gradient of 125 mM NaCl in Buffer A followed by a linear gradient of 125-1000 mM NaCl in Buffer A. Active fractions from the linear gradient were applied to a 180 mL hydroxyapatite column in Buffer B (20 mM Bis-Tris Propane (pH 6.8), 1 mM MgCl2, 0.25 mM DTT, 10 μM ZnSO4, and 250 mM KCl). After loading, the column was washed with 2 volumes of Buffer B and eluted with a linear gradient of 0-125 mM potassium phosphate in Buffer B. Active fractions were pooled, precipitated with 60% ammonium sulfate, and resuspended in Buffer C (20 mM Bis-Tris Propane, pH 6.8, 125 mM NaCl, 0.5 mM DTT, and 10 μM ZnSO4). The pool was applied to a 140 mL column of […]® S-300 HR and eluted with Buffer C. Active fractions were diluted to 50% glycerol and stored at −20° C.
(§1) cGMP-PDE activity of compounds of the present invention was measured using a one-step assay adapted from Wells et al., Biochim. Biophys. Acta, 384, 430 (1975). The reaction medium contained 50 mM Tris-HCl, pH 7.5, 5 mM magnesium acetate, 250 μg/ml 5′-Nucleotidase, 1 mM EGTA, and 0.15 μM 8-[H^3]-cGMP. Unless otherwise indicated, the enzyme used was a human recombinant PDE5 (ICOS Corp., Bothell, Wash.).
(§2) Compounds of the invention were dissolved in DMSO finally present at 2% in the assay.
With `O=C1[C@H]2Cc3c([nH]c4ccccc34)[C@@H](c3ccc4c(c3)OCO4)N2C(=O)CN1O` [Example 2, (6R,12aR)-6-Benzo[1,3]dioxo-5-yl-2-hydroxy-2,3,6,7,12,12a-hexahydropyrazino[1′,2′:1,6]-pyrido[3,4-b]indole-1,4-dione], the pIC50 was 8.12.
Still for that read-out and setting: then `CCOCCCN1CC(=O)N2[C@H](c3ccc4c(c3)OCO4)c3[nH]c4ccccc4c3C[C@@H]2C1=O` [Example 39], with 7.52; and `COC(=O)CN1CC(=O)N2[C@H](c3ccc4c(c3)OCO4)c3[nH]c4ccccc4c3C[C@@H]2C1=O` [Example 87], with 7.70; and `O=C1[C@H]2Cc3c([nH]c4ccccc34)[C@@H](c3ccc4c(c3)OCO4)N2C(=O)CN1CCCN1CCOCC1` [Example 18], with 7.40.
On the same count and under the same terms, the value for `NS(=O)(=O)c1ccc(CCN2CC(=O)N3[C@H](c4ccc5c(c4)OCO5)c4[nH]c5ccccc5c4C[C@@H]3C2=O)cc1` [Example 67] was 8.21.
Regarding `O=C1[C@H]2Cc3c([nH]c4ccccc34)[C@@H](c3ccc4c(c3)OCO4)N2C(=O)CN1CCOCCO` [Example 40], the negative-log IC50 (pIC50) was 8.00.

Another data set addresses T2, PDE5 obtained from bovine aorta (Bos taurus, UniProt Q28156).
T2 construct: from tissue; host or cells: bovine aorta
Nature of the data set: cGMP-PDE inhibition assay using PDE5 obtained from bovine aorta. It is filed as biochemical. Conditions: read-out: PDE5 IC50 (Bov. aorta). How it is done:
as §1, §2
With `COC(=O)CN1CC(=O)N2[C@H](c3ccc4c(c3)OCO4)c3[nH]c4ccccc4c3C[C@@H]2C1=O` [Example 19], the negative-log IC50 (pIC50) is 8.40.
Regarding `COc1ccc([C@@H]2c3[nH]c4ccccc4c3C[C@@H]3C(=O)N(CCCN(C)C)CC(=O)N23)cc1` [Example 11], the pIC50 is 6.19.
On the same count and under the same terms, the value for `COc1ccc([C@@H]2c3[nH]c4ccccc4c3C[C@@H]3C(=O)N(CCCN4CCN(C)CC4)CC(=O)N23)cc1` [Example 12] was 7.00; that for `COc1ccc([C@@H]2c3[nH]c4ccccc4c3C[C@@H]3C(=O)N(CCN(C)C)CC(=O)N23)cc1` [Example 9] was 7.15.
Still for that read-out and setting: then `O=C1[C@H]2Cc3c([nH]c4ccccc34)[C@@H](c3ccc4c(c3)OCO4)N2C(=O)CN1CCO` [Example 10], with 8.30; and `NC(=O)CN1CC(=O)N2[C@H](c3ccc4c(c3)OCO4)c3[nH]c4ccccc4c3C[C@@H]2C1=O` [Example 20], with 8.00.

System in a further data set: not given
Test: not given
Details: not given
For `O=C1[C@H]2Cc3c([nH]c4ccccc34)[C@@H](c3ccc4c(c3)OCO4)N2C(=O)CN1O` [Example 2, (6R,12aR)-6-Benzo[1,3]dioxo-5-yl-2-hydroxy-2,3,6,7,12,12a-hexahydropyrazino[1′,2′:1,6]-pyrido[3,4-b]indole-1,4-dione], the melting point is 276 to 283 °C (dec.).

The term pIC50 denotes −log10 of the IC50, conventionally taken in molar units. What is called melting point is the temperature of the solid-liquid transition.
